Assay: Transcellular transport test using Caco2 cell
Assay type: in vitro ADME
Settings: human, Caco-2, apical-to-basolateral (A-to-B), pH=7.4, 10 µM compound
Protocol: Caco2 cells (purchased from ATCC) were cultured in DMEM medium (Thermo Fisher Scientific, Inc., 11965) containing 10% FBS (Thermo Fisher Scientific, Inc., 10082) and 1% penicillin/streptomycin/amphotericin B (Thermo Fisher Scientific, Inc., 15240). A transcellular transport test was carried out in accordance with MultiScreen Caco2 Drug Transport Assembly in a 96-well system (Application Note AN1727EN, MultiScreen Caco-2 Assay System, Merck) by partially modifying it. The Caco2 cells were inoculated at a cell density of 4×10^4 cells/well onto a micropore polycarbonate insert of a 96-well plate (Merck, Millcell-96 culture insert plate 0.4 μm pore size, well membrane area=0.11 cm^2, PSHT004S5) and cultured for 20 to 22 days, and the resulting monolayer was used in the transcellular transport test. The medium of the inoculated cells was replaced with a fresh one every 3 to 4 days.
Apical-to-basolateral (A-to-B) transport in the Caco2 cell monolayer membrane was performed by using HBSS (Thermo Fisher Scientific, Inc., 14025) medium (pH=7.4) containing 20 mM HEPES (Thermo Fisher Scientific, Inc., 15630), and adding HEPES-containing HBSS medium containing 10 µM compound (a 10 mM solution of the compound in DMSO was added at a 1000-fold dilution; final DMSO concentration: 0.1%) at 75 μL/well to the apical side and HEPES-containing HBSS medium supplemented with no compound at 250 μL/well to the basolateral side, followed by culture at 37° C. for 90 minutes. After culture, a 100 μL aliquot was collected from the basolateral side, and the concentration of a permeated compound was measured by LC-MS/MS under measurement conditions mentioned later. Papp (apparent permeability; cm/sec) was calculated from the determined concentration. Papp was determined according to the expression given below by calculating the slope (dA/dt; nmol/sec) of a straight line drawn between two points 0 minutes and zero amount of the compound in a graph plotted with an assay time (90 min) on the abscissa against the amount of the compound in the solution on the permeated side on the ordinate. As for an assay concentration, the concentration in the compound in the HEPES-containing HBSS medium containing the added compound was measured by UV-HPLC under measurement conditions mentioned later.
C0: assay concentration, S: plate membrane area=0.11 cm^2
• LC: LC20 or LC30 HPLC system manufactured by Shimadzu Corp. • Column: Phenomenex Kinetex C18 (50 mm×2.1 mm, 2.6 μm) • Column temperature: 40° C. • Flow rate: 0.3 mL/min • Mobile phase A: 0.1% aqueous formic acid solution • Mobile phase B: 0.1% formic acid, 50% acetonitrile/methanol mixed solution • Gradient: 0-2 min; A/B=90/10 to 10/90, 2-3 min; A/B=10/90, 3-3.01 min; A/B=10/90 to 90/10 • MS: Q-Trap3200 manufactured by AB Sciex Pte. Ltd. • Ionization: ESI • Mode: Positive
• LC: LC20 or LC30 HPLC system manufactured by Shimadzu Corp. • Column: Phenomenex Kinetex C18 (100 mm×2.1 mm, 2.6 μm) • Column temperature: 40° C. • Flow rate: 0.25 mL/min • Mobile phase A: 0.1% aqueous formic acid solution • Mobile phase B: 0.1% formic acid, 50% acetonitrile/methanol mixed solution • Gradient: 0-3 min; A/B=90/10, 3-11 min; A/B=90/10 to 5/95, 11-15 min; A/B=5/95, 15-15.1 min; A/B=5/95 to 90/10 • UV detector: photodiode array detector
A: Papp>1×10^−6 (cm/sec), B: 1×10^−6 (cm/sec)≥Papp>5×10^−7 (cm/sec), C: 5×10^−7 (cm/sec)≥Papp>1×10^−7 (cm/sec), or D: Papp≤1×10^−7 (cm/sec).

| SMILES | Papp A→B at 90 min, 10 µM [×10⁻⁶ cm/s] |
| --- | --- |
| O=C(O)C[C@H](NC(=O)CNC(=O)c1cc(NC2=NCC(F)CN2)c2cn[nH]c2c1)c1cc(Cl)cc(I)c1 (stereo partly drawn) [21-(b), (3S)-3-(3-chloro-5-iodophenyl)-3-(2-(4-((5-fluoro-1,4,5,6-tetrahydropyrimidin-2-yl)amino)-1H-indazole-6-carboxamido)acetamido)propanoic acid] | > 1 |
| O=C(O)C[C@H](NC(=O)CNC(=O)c1cc(NC2=NCC(F)CN2)cc2[nH]ncc12)c1cc(I)cc(C(F)(F)F)c1 (stereo partly drawn) [54-(b), (3S)-3-(2-(6-((5-fluoro-1,4,5,6-tetrahydropyrimidin-2-yl)amino)-1H-indazole-4-carboxamido)acetamido)-3-(3-iodo-5-(trifluoromethyl)phenyl)propanoic acid] | 0.1 to 0.5 |
| O=C(O)C[C@H](NC(=O)CNC(=O)c1cc(NC2=NCC(F)CN2)c2cn[nH]c2c1)c1cc(Br)ccc1F (stereo partly drawn) [23-(b), (3S)-3-(5-bromo-2-fluorophenyl)-3-(2-(4-((5-fluoro-1,4,5,6-tetrahydropyrimidin-2-yl)amino)-1H-indazole-6-carboxamido)acetamido)propanoic acid] | > 1 |
| O=C(O)C[C@H](NC(=O)CNC(=O)c1cc(NC2=NCC(F)CN2)c2cn[nH]c2c1)c1cccc(N2CCOCC2)c1 (stereo partly drawn) [45-(b), (3S)-3-(2-(4-((5-fluoro-1,4,5,6-tetrahydropyrimidin-2-yl)amino)-1H-indazole-6-carboxamido)acetamido)-3-(3-morpholinophenyl)propanoic acid] | 0.5 to 1 |
| O=C(O)C[C@H](NC(=O)CNC(=O)c1cc(NC2=NCC(F)CN2)c2cn[nH]c2c1)c1cc(-n2cccn2)cc(C(F)(F)F)c1 (stereo partly drawn) [8-(b), (3S)-3-(3-(1H-pyrazol-1-yl)-5-(trifluoromethyl)phenyl)-3-(2-(4-((5-fluoro-1,4,5,6-tetrahydropyrimidin-2-yl)amino)-1H-indazole-6-carboxamido)acetamido)propanoic acid] | 0.5 to 1 |
| O=C(O)C[C@H](NC(=O)CNC(=O)c1cc(NC2=NCC(F)CN2)c2cn[nH]c2c1)c1cccc(Cl)c1 (stereo partly drawn) [41-(b), (3S)-3-(3-chlorophenyl)-3-(2-(4-((5-fluoro-1,4,5,6-tetrahydropyrimidin-2-yl)amino)-1H-indazole-6-carboxamido)acetamido)propanoic acid] | > 1 |
| O=C(O)C[C@H](NC(=O)CNC(=O)c1cc(NC2=NCC(F)CN2)cc2[nH]ncc12)c1cccc(C(F)(F)F)c1 (stereo partly drawn) [56-(b), (3S)-3-(2-(6-((5-fluoro-1,4,5,6-tetrahydropyrimidin-2-yl)amino)-1H-indazole-4-carboxamido)acetamido)-3-(3-(trifluoromethyl)phenyl)propanoic acid] | 0.1 to 0.5 |
| Cc1ccc([C@H](CC(=O)O)NC(=O)CNC(=O)c2cc(NC3=NCC(F)CN3)c3cn[nH]c3c2)cc1C(F)(F)F (stereo partly drawn) [14-(b), (3S)-3-(2-(4-((5-fluoro-1,4,5,6-tetrahydropyrimidin-2-yl)amino)-1H-indazole-6-carboxamido)acetamido)-3-(4-methyl-3-(trifluoromethyl)phenyl)propanoic acid] | > 1 |
| O=C(O)C[C@H](NC(=O)CNC(=O)c1cc(NC2=NCC(F)CN2)c2cn[nH]c2c1)c1cccc(Br)c1 (stereo partly drawn) [42-(b), (3S)-3-(3-bromophenyl)-3-(2-(4-((5-fluoro-1,4,5,6-tetrahydropyrimidin-2-yl)amino)-1H-indazole-6-carboxamido)acetamido)propanoic acid] | > 1 |
| O=C(O)C[C@H](NC(=O)CNC(=O)c1cc(NC2=NCC(F)CN2)c2cn[nH]c2c1)c1cc(OC(F)F)cc(C(F)(F)F)c1 (stereo partly drawn) [24-(b), (3S)-3-(3-(difluoromethoxy)-5-(trifluoromethyl)phenyl)-3-(2-(4-((5-fluoro-1,4,5,6-tetrahydropyrimidin-2-yl)amino)-1H-indazole-6-carboxamido)acetamido)propanoic acid] | 0.5 to 1 |

More lines, now with the values ahead:

| Papp A→B at 90 min, 10 µM [×10⁻⁶ cm/s] | SMILES |
| --- | --- |
| > 1 | O=C(O)C[C@H](NC(=O)CNC(=O)c1cc(NC2=NCC(F)CN2)c2cn[nH]c2c1)c1cc(OC(F)(F)F)ccc1F (stereo partly drawn) [33-(b), (3S)-3-(2-(4-((5-fluoro-1,4,5,6-tetrahydropyrimidin-2-yl)amino)-1H-indazole-6-carboxamido)acetamido)-3-(2-fluoro-5-(trifluoromethoxy)phenyl)propanoic acid] |
| > 1 | O=C(O)C[C@H](NC(=O)CNC(=O)c1cc(NC2=NCC(F)CN2)c2cn[nH]c2c1)c1cc(C(F)(F)F)ccc1F (stereo partly drawn) [11-(b), (3S)-3-(2-(4-((5-fluoro-1,4,5,6-tetrahydropyrimidin-2-yl)amino)-1H-indazole-6-carboxamido)acetamido)-3-(2-fluoro-5-(trifluoromethyl)phenyl)propanoic acid] |
| 0.5 to 1 | COc1cc([C@H](CC(=O)O)NC(=O)CNC(=O)c2cc(NC3=NCC(F)CN3)c3cn[nH]c3c2)cc(C(F)(F)F)c1 (stereo partly drawn) [5-(b), (3S)-3-(2-(4-((5-fluoro-1,4,5,6-tetrahydropyrimidin-2-yl)amino)-1H-indazole-6-carboxamido)acetamido)-3-(3-methoxy-5-(trifluoromethyl)phenyl)propanoic acid] |
| > 1 | O=C(O)C[C@H](NC(=O)CNC(=O)c1cc(NC2=NCCCN2)c2cn[nH]c2c1)c1cc(Cl)cc(C(F)(F)F)c1 [51-(b), (S)-3-(3-chloro-5-(trifluoromethyl)phenyl)-3-(2-(4-((1,4,5,6-tetrahydropyrimidin-2-yl)amino)-1H-indazole-6-carboxamido)acetamido)propanoic acid] |
| > 1 | O=C(O)C[C@H](NC(=O)CNC(=O)c1cc(NC2=NCC(O)CN2)c2cn[nH]c2c1)c1cc(Cl)cc(C(F)(F)F)c1 (stereo partly drawn) [50-(b), (3S)-3-(3-chloro-5-(trifluoromethyl)phenyl)-3-(2-(4-((5-hydroxy-1,4,5,6-tetrahydropyrimidin-2-yl)amino)-1H-indazole-6-carboxamido)acetamido)propanoic acid] |
| > 1 | O=C(O)C[C@H](NC(=O)CNC(=O)c1cc(NC2=NCC(F)CN2)c2cn[nH]c2c1)c1cc(Br)cc(I)c1 (stereo partly drawn) [20-(b), (3S)-3-(3-bromo-5-iodophenyl)-3-(2-(4-((5-fluoro-1,4,5,6-tetrahydropyrimidin-2-yl)amino)-1H-indazole-6-carboxamido)acetamido)propanoic acid] |
| > 1 | O=C(O)C[C@H](NC(=O)CNC(=O)c1cc(NC2=NCC(F)CN2)c2cn[nH]c2c1)c1cc(Br)cc(OC(F)(F)F)c1 (stereo partly drawn) [32-(b), (3S)-3-(3-bromo-5-(trifluoromethoxy)phenyl)-3-(2-(4-((5-fluoro-1,4,5,6-tetrahydropyrimidin-2-yl)amino)-1H-indazole-6-carboxamido)acetamido)propanoic acid] |
